Results from ChEMBL document CHEMBL5143585, “Discovery and characterization of benzyloxy piperidine based dopamine 4 receptor antagonists” (Bioorg Med Chem Lett, 2022).

What was measured:
[1] = molecular target: T1, D(4) dopamine receptor (Homo sapiens) (UniProt P21917); experiment: Displacement of [3H]N-methylspiperone from human D4 receptor expressed in HEK293 cell membrane at 10 uM by competitive inhibition based analysis; assay type: cell membranes
T1 sequence (whole entry): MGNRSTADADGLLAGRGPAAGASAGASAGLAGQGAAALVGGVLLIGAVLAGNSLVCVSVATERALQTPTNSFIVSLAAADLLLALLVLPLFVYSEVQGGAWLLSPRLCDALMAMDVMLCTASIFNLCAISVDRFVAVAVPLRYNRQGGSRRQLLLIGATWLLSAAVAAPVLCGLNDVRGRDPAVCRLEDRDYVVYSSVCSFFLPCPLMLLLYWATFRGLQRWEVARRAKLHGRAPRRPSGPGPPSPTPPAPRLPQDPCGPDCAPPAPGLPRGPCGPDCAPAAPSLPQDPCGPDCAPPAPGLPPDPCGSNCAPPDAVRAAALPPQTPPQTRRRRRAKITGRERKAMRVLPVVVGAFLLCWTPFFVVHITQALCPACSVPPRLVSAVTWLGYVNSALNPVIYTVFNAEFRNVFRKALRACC

[2] = molecular target: D(1A) dopamine receptor (Homo sapiens, UniProt P21728); experiment: Displacement of [3H]-SCH23390 from human D1 receptor expressed in HEK293 cell membrane at 10 uM by competitive inhibition based analysis; assay type: cell membranes
D(1A) dopamine receptor, sequence (P21728 whole entry): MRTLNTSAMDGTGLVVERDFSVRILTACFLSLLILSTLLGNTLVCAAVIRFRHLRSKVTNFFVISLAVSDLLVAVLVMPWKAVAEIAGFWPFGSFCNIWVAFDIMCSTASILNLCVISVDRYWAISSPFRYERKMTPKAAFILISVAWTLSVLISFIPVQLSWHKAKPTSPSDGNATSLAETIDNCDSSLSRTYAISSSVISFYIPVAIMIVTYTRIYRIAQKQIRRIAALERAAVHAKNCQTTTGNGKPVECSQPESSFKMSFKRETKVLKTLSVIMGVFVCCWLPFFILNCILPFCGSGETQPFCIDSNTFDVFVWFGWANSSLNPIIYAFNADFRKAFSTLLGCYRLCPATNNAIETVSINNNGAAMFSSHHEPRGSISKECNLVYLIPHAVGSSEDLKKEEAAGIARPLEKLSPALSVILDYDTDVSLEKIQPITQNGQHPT

[3] = molecular target: D(2) dopamine receptor (Homo sapiens) (UniProt P14416); experiment: Displacement of [3H]N-methylspiperone from human D2 receptor expressed in HEK293 cell membrane at 10 uM by competitive inhibition based analysis; assay type: cell membranes
D(2) dopamine receptor (Homo sapiens), sequence (P14416 whole entry): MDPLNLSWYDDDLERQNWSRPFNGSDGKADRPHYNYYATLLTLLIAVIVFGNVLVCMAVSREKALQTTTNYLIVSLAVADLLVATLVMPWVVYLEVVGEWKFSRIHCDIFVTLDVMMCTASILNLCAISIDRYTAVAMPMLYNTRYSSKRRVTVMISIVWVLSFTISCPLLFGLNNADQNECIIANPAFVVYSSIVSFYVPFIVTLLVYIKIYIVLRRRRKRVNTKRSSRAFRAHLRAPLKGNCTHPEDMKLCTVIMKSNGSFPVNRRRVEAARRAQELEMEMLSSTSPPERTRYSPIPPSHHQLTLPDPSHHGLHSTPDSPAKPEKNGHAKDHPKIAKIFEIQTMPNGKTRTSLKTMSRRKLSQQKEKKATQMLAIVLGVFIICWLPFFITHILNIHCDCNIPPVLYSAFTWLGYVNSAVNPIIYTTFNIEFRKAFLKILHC

[4] = molecular target: D(3) dopamine receptor (Homo sapiens, UniProt P35462); experiment: Displacement of [3H]N-methylspiperone from human D3 receptor expressed in HEK293 cell membrane at 10 uM by competitive inhibition based analysis; assay type: cell membranes
D(3) dopamine receptor, sequence (P35462 whole entry): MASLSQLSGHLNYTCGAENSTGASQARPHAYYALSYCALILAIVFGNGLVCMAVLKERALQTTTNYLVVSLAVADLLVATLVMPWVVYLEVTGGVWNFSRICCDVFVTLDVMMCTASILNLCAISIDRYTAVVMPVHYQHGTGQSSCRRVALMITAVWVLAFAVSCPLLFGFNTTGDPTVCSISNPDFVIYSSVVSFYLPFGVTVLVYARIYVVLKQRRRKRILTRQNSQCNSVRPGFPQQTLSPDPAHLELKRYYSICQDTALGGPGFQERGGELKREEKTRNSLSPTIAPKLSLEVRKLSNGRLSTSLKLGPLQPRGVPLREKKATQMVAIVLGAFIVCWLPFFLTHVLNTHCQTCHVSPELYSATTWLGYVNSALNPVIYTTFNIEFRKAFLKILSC

[5] = molecular target: D(1B) dopamine receptor (Homo sapiens, UniProt P21918); experiment: Displacement of [3H]-SCH23390 from human D5 receptor expressed in HEK293 cell membrane at 10 uM by competitive inhibition based analysis; assay type: cell membranes
D(1B) dopamine receptor, sequence (P21918 whole entry): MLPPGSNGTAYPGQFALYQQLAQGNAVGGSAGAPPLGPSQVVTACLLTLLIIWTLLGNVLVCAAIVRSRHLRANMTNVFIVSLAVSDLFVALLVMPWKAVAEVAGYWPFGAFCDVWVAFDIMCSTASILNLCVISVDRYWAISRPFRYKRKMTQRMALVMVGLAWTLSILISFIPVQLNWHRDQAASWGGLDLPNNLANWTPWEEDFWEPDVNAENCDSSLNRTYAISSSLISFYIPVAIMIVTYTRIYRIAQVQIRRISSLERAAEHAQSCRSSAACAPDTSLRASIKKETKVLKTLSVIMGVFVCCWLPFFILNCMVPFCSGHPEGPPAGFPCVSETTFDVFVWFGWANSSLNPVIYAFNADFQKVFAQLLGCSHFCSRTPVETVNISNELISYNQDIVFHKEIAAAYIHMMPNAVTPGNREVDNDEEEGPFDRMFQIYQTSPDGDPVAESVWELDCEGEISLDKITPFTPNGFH

[6] = molecular target: T2, D(4) dopamine receptor (Homo sapiens, UniProt P21917); experiment: Displacement of [3H]N-methylspiperone from human D4 receptor expressed in HEK293 cell membrane by competitive inhibition based analysis; assay type: cell membranes
T2 sequence (P21917 whole entry): T1 sequence (whole entry)

[7] = Protein binding in human plasma assessed as unbound fraction; assay type: ADME, cell-free
[8] = Protein binding in mouse plasma assessed as unbound fraction; assay type: ADME, cell-free

Row | Compound | inhibition ([1]; filed as antagonist) | inhibition [2] | inhibition [3] | inhibition [4] | inhibition [5] | IC50 [6] | Ki [6] | Fu [7] | Fu [8] | inhibition [1]
1 | FC(F)(F)Oc1cccc(CO[C@H]2CCCN(Cc3ncc4ccccn34)C2)c1 | 40.4% | < 50% | < 50% | < 50% | < 50% | – | – | – | – | –
2 | Fc1cc(COC2CCN(Cc3ccc4[nH]ncc4c3)CC2)ccc1Cl | – | – | – | – | – | 575 nM | 580 nM | – | – | –
3 | COc1ccc(CN2CCC[C@H](OCc3ccc(F)c(C)c3)C2)cc1F | – | < 50% | < 50% | < 50% | < 50% | 135 nM | 135 nM | – | – | –
4 | COc1ccc(CN2CCC[C@H](OCc3cccc(F)c3)C2)cc1F | – | < 50% | < 50% | < 50% | < 50% | 204 nM | 206 nM | – | – | –
5 | FC(F)(F)c1cccc(COC2CCN(Cc3ccc4[nH]ncc4c3)CC2)c1 | – | – | – | – | – | 851 nM | 860 nM | – | – | –
6 | Fc1cccc(CO[C@H]2CCCN(Cc3ccc(Cl)cc3F)C2)c1 | 44.9% | < 50% | < 50% | < 50% | < 50% | – | – | – | – | –
7 | Cc1ccccc1CO[C@H]1CCCN(Cc2ccc(Cl)c(Cl)c2)C1 | 43.9% | < 50% | < 50% | < 50% | < 50% | – | – | – | – | –
8 | Fc1ccc(CO[C@H]2CCCN(Cc3ncn4ccccc34)C2)cc1F | – | < 50% | < 50% | < 50% | < 50% | 447 nM | 447 nM | 3.9% | 18.1% | –
9 | Fc1cccc(CO[C@H]2CCCN(Cc3cn4ccccc4n3)C2)c1 | – | < 50% | < 50% | < 50% | < 50% | 1950 nM | 1940 nM | – | – | –
10 | Fc1cccc(COC2CCN(Cc3cn4ccccc4n3)CC2)c1 | – | < 50% | < 50% | < 50% | < 50% | 166 nM | 167 nM | 7% | 35.5% | –
11 | Cc1ccc(CN2CCC[C@H](OCc3ccc(F)c(C)c3)C2)cc1 | – | < 50% | < 50% | < 50% | < 50% | 166 nM | 165 nM | – | – | –
12 | FC(F)(F)c1cccc(COC2CCN(Cc3cn4ccccc4n3)CC2)c1 | – | < 50% | < 50% | < 50% | < 50% | 166 nM | 166 nM | 1.8% | 17.1% | –
13 | COc1ccc(CN2CCC[C@H](OCc3ccc(C)cc3)C2)cc1F | – | < 50% | < 50% | < 50% | < 50% | 240 nM | 241 nM | – | – | –
14 | Cc1cc(CO[C@H]2CCCN(Cc3ncn4ccccc34)C2)ccc1F | – | < 50% | < 50% | < 50% | < 50% | 162 nM | 166 nM | – | – | –
15 | Fc1ccc(COC2CCN(Cc3ncc4ccccn34)CC2)cc1F | – | < 50% | < 50% | < 50% | < 50% | 214 nM | 215 nM | – | – | –
16 | Fc1cccc(COC2CCN(Cc3ncn4ccccc34)CC2)c1 | – | < 50% | < 50% | < 50% | < 50% | 166 nM | 166 nM | 2.3% | 40.5% | –
17 | Cc1ccccc1CN1CCC[C@H](OCc2cccc(F)c2)C1 | – | < 50% | < 50% | < 50% | < 50% | – | – | – | – | 29.2%
18 | COc1ccc(CN2CCC[C@H](OCc3ccccc3C)C2)cc1F | – | < 50% | < 50% | < 50% | < 50% | 347 nM | 343 nM | – | – | –
19 | FC(F)(F)c1cccc(COC2CCN(Cc3ncc4ccccn34)CC2)c1 | – | < 50% | < 50% | < 50% | < 50% | 209 nM | 208 nM | – | – | –
20 | Cc1nc(CN2CCC(OCc3ccc(Cl)c(F)c3)CC2)c2ccccn12 | – | < 50% | < 50% | < 50% | < 50% | 95.5 nM | 95.5 nM | 7.1% | 13.2% | –
21 | Fc1cc(COC2CCN(Cc3ncc4ccccn34)CC2)ccc1Cl | – | < 50% | < 50% | < 50% | < 50% | 158 nM | 158 nM | 1% | 1.7% | –

Row | Compound | inhibition ([1]; filed as antagonist) | inhibition [2] | inhibition [3] | inhibition [4] | inhibition [5] | IC50 [6] | Ki [6] | Fu [7] | Fu [8] | inhibition [1]
22 | Cc1ccc(CO[C@H]2CCCN(Cc3ccc(Cl)c(Cl)c3)C2)cc1 | – | < 50% | < 50% | < 50% | < 50% | 1380 nM | 1390 nM | – | – | –
23 | COc1ccc(CO[C@H]2CCCN(Cc3cccc(C)c3)C2)cc1F | 45.8% | < 50% | < 50% | < 50% | < 50% | – | – | – | – | –
24 | COc1ccc(CN2CCC[C@@H](OCc3ccc(F)c(C)c3)C2)cc1F | – | – | – | – | – | 2000 nM | 1980 nM | – | – | –
25 | Cn1ncc2cc(CN3CCC(OCc4ccc(Cl)c(F)c4)CC3)ccc21 | – | < 50% | < 50% | < 50% | < 50% | 170 nM | 170 nM | 0.9% | 5.2% | –
26 | Cc1ccccc1CO[C@H]1CCCN(Cc2ccc(Cl)cc2F)C1 | – | < 50% | < 50% | < 50% | < 50% | – | – | – | – | -1.6%
27 | Fc1cccc(CO[C@H]2CCCN(Cc3ncn4ccccc34)C2)c1 | – | < 50% | < 50% | < 50% | < 50% | 1350 nM | 1340 nM | – | – | –
28 | Cc1cccc(CO[C@H]2CCCN(Cc3cc4ccc(Cl)cc4[nH]3)C2)n1 | – | < 50% | < 50% | < 50% | < 50% | 316 nM | 319 nM | – | – | –
29 | Cc1ccc(CO[C@H]2CCCN(Cc3cccc(F)c3)C2)cc1 | – | < 50% | < 50% | < 50% | < 50% | – | – | – | – | 33.1%
30 | COc1ccc(CN2CCC[C@H](OCc3cccc(C)n3)C2)cc1F | – | < 50% | < 50% | < 50% | < 50% | 1050 nM | 1040 nM | – | – | –
31 | Cc1nc(CN2CCC(OCc3ccc(F)c(F)c3)CC2)c2ccccn12 | – | < 50% | < 50% | < 50% | < 50% | 479 nM | 478 nM | – | – | –
32 | COc1ccc(CN2CCC[C@H](OCc3ccc(F)c(F)c3)C2)cc1F | – | < 50% | < 50% | < 50% | < 50% | 170 nM | 169 nM | 1.1% | 2.6% | –
33 | Fc1ccc(COC2CCN(Cc3ccc4[nH]ncc4c3)CC2)cc1F | – | – | – | – | – | 1740 nM | 1730 nM | – | – | –
34 | Fc1ccc(CO[C@H]2CCCN(Cc3cn4ccccc4n3)C2)cc1F | – | < 50% | < 50% | < 50% | < 50% | 372 nM | 375 nM | 0.2% | 8.7% | –
35 | Cc1cc(CO[C@H]2CCCN(Cc3cn4ccccc4n3)C2)ccc1F | – | < 50% | < 50% | < 50% | < 50% | 186 nM | 187 nM | – | – | –
36 | Cc1cccc(CO[C@H]2CCCN(Cc3ncc4ccccn34)C2)n1 | – | < 50% | < 50% | < 50% | < 50% | – | – | – | – | 18.9%
37 | Cn1cnc2cc(CN3CCC(OCc4ccc(Cl)c(F)c4)CC3)ccc21 | 48% | – | – | – | – | – | – | – | – | –
38 | Cn1cnc2cc(CN3CCC(OCc4ccc(F)c(F)c4)CC3)ccc21 | – | – | – | – | – | 1410 nM | 1400 nM | – | – | –
39 | Cc1ccc(CO[C@H]2CCCN(Cc3ccc(C#N)cc3)C2)cc1 | – | < 50% | < 50% | < 50% | < 50% | 1020 nM | 1010 nM | – | – | –
40 | FC(F)(F)Oc1cccc(CO[C@H]2CCCN(Cc3cn4ccccc4n3)C2)c1 | – | < 50% | < 50% | < 50% | < 50% | 646 nM | 646 nM | – | – | –
41 | Cc1ccccc1CO[C@H]1CCCN(Cc2cn3ccccc3n2)C1 | – | < 50% | < 50% | < 50% | < 50% | 1820 nM | 1830 nM | – | – | –
42 | Cc1cccc(CO[C@H]2CCCN(Cc3cn4ccccc4n3)C2)n1 | – | < 50% | < 50% | < 50% | < 50% | – | – | – | – | 22.5%
